These are literature values, as cited in patent publication US20250186473A1, “Compositions and Methods for Treating Kidney Disease” (Neukidney Incorporated, priority 2023, published 2025).

This data set concerns CKD in rat models. The settings on record: oral supplementation, BUN, serum creatinine, fibrosis.

On to `NC(=O)c1cccnc1` [Nicotinamide], for which the “effect on progression of CKD” value is listed as “attenuated progression of CKD”.
